According to patent publication US9056874B2, “Complement pathway modulators and uses thereof” (NOVARTIS AG, priority 2012, dated 2015):

Each compound was assayed against T1, factor B (Homo sapiens, UniProt P00751) (assay: assay of Biological Example 2.7). Settings: assay of Biological Example 2.7 (Table 2).
Type: binding
Parameters: made in house; host or cells: drosophila cells
Target sequence in this assay (P00751 26-764): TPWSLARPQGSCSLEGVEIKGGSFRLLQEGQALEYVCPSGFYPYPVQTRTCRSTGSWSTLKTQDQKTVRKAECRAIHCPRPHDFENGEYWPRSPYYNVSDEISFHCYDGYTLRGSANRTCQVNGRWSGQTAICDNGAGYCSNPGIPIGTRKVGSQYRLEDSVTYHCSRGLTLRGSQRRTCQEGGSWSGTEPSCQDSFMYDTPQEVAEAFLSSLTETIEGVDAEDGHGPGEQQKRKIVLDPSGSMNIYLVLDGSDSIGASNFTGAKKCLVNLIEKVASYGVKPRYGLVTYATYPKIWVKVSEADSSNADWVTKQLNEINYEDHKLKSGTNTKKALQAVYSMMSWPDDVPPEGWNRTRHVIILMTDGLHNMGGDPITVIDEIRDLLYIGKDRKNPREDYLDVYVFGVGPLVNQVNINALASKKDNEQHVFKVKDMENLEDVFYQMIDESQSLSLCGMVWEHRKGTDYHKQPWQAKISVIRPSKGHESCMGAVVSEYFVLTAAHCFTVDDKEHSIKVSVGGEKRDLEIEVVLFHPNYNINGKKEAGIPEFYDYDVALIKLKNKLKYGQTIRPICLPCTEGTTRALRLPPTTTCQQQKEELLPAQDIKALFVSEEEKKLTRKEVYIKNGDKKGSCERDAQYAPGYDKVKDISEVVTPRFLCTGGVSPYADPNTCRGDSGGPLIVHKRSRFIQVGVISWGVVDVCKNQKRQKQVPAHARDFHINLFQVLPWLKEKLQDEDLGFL
For `COc1cc(C)c2[nH]ccc2c1C(NCCN)(c1nc2cc(C#N)ccc2[nH]1)C(F)(F)F` (racemic) [38-D b) (+), (+)-2-(1-((2-aminoethyl)amino)-2,2,2-trifluoro-1-(5-methoxy-7-methyl-1H-indol-4-yl)ethyl)-1H-benzo[d]imidazole-5-carbonitrile], the IC50 was 2060 nM.
With `COc1cc(C)c2[nH]ccc2c1C(NCCN)(c1nc2cc(C#N)ccc2[nH]1)C(F)(F)F` (racemic) [38-D b) (−), (−)-2-(1-((2-aminoethyl)amino)-2,2,2-trifluoro-1-(5-methoxy-7-methyl-1H-indol-4-yl)ethyl)-1H-benzo[d]imidazole-5-carbonitrile] the IC50 was 780 nM.
`COc1cc(C)c2[nH]ccc2c1C(OC(F)C(=O)O)(c1nc2cc(C#N)ccc2[nH]1)C(F)(F)F` (racemic) [Example 35-G, (±)-2-(1-(5-Cyano-1H-benzo[d]imidazol-2-yl)-2,2,2-trifluoro-1-(5-methoxy-7-methyl-1H-indol-4-yl)ethoxy)-2-fluoroacetic acid] gave an IC50 of 770 nM.
Compound `COc1cc(C)c2[nH]ccc2c1C(OCc1nnc(C)o1)(c1nc2cc(C#N)ccc2[nH]1)C(F)(F)F` (racemic) [Example 35-L, (±)-2-(2,2,2-Trifluoro-1-(5-methoxy-7-methyl-1H-indol-4-yl)-1-((5-methyl-1,3,4-oxadiazol-2-yl)methoxy)ethyl)-1H-benzo[d]imidazole-5-carbonitrile] has an IC50 of 240 nM.
Compound `Cc1cc(C2CC2)c(C(OCC(=O)O)(c2nc3cc(C#N)ccc3[nH]2)C(F)(F)F)c2cc[nH]c12` (racemic) [Example 109-C, (±)-2-(1-(5-Cyano-1H-benzo[d]imidazol-2-yl)-1-(5-cyclopropyl-7-methyl-1H-indol-4-yl)-2,2,2-trifluoroethoxy)acetic acid] has an IC50 of 65 nM.
`COc1cc(C)c2[nH]ccc2c1C(OCC(C)(C)C(=O)O)(c1nc2cc(C#N)ccc2o1)C(F)(F)F` (racemic) [Example 138, (±)-3-(1-(5-cyanobenzo[d]oxazol-2-yl)-2,2,2-trifluoro-1-(5-methoxy-7-methyl-1H-indol-4-yl)ethoxy)-2,2-dimethylpropanoic acid] showed an IC50 of 1220 nM.
Compound `COc1cc(C)c2[nH]ccc2c1C(NCCO)(c1nc2cc(C#N)ccc2[nH]1)C(F)(F)F` (racemic) [Example 139-C, (±)-2-(2,2,2-Trifluoro-1-((2-hydroxyethyl)amino)-1-(5-methoxy-7-methyl-1H-indol-4-yl)ethyl)-1H-benzo[d]imidazole-5-carbonitrile] has an IC50 of 120 nM.
`COc1cc(C)c2[nH]ccc2c1C(NCC(=O)O)(c1nc2cc(C#N)ccc2[nH]1)C(F)(F)F` (racemic) [Example 140-B, (±)-2-((1-(5-cyano-1H-benzo[d]imidazol-2-yl)-2,2,2-trifluoro-1-(5-methoxy-7-methyl-1H-indol-4-yl)ethyl)amino)acetic acid] gave an IC50 of 340 nM.
With `COc1cc(C)c2[nH]ccc2c1C1(c2nc3cc(C#N)ccc3[nH]2)CC1C(=O)O` (racemic) [Example 142-D, (±)-2-(5-Cyano-1H-benzo[d]imidazol-2-yl)-2-(5-methoxy-7-methyl-1H-indol-4-yl)cyclopropanecarboxylic acid] the IC50 was 790 nM.

Each compound was assayed against T1, factor B (assay: factor B inhibition assay of Biological Example 1). Settings: IC50 (nM), assay of Biological Example 1 (Table 1).
Type: biochemical
Parameters: CVF-Bb complex prepared from purified cobra venom factor (1 μM), recombinant human complement factor B; made in house; host or cells: drosophila cells (factor B); E. coli (factor D used to form the complex)
Target sequence in this assay (P00751 260-764 limits assumed): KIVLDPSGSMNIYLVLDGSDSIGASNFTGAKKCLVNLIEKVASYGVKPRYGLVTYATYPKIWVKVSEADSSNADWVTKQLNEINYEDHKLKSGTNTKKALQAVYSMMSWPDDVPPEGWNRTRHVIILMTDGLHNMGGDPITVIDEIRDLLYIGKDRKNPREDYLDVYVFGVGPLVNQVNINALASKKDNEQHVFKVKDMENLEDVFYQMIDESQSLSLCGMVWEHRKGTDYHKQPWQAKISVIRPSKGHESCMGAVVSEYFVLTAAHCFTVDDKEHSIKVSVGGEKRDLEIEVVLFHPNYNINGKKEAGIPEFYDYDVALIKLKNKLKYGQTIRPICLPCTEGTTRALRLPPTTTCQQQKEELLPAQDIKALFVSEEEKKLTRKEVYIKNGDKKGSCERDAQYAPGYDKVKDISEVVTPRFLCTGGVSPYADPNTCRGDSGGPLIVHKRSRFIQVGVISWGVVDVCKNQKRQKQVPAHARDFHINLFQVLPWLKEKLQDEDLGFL
Target sequence in this assay (Q91132 23-649 partner limits assumed): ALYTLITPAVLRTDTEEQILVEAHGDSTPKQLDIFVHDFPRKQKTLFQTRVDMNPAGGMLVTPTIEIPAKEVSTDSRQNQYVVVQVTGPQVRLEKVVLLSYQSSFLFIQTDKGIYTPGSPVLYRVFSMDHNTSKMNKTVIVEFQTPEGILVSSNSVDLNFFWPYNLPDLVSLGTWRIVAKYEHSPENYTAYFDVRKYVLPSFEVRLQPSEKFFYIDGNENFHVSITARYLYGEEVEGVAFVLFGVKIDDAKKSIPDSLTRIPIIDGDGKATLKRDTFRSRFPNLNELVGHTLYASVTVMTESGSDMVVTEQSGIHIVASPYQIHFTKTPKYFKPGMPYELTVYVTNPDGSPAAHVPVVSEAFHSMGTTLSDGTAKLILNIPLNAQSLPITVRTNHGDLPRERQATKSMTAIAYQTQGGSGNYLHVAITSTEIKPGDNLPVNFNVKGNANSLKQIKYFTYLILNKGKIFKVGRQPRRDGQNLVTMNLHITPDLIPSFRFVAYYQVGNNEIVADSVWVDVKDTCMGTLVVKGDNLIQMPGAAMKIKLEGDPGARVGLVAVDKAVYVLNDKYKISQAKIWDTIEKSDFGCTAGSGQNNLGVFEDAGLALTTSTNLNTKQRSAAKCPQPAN
Target sequence in this assay (Q91132 733-984 partner limits assumed): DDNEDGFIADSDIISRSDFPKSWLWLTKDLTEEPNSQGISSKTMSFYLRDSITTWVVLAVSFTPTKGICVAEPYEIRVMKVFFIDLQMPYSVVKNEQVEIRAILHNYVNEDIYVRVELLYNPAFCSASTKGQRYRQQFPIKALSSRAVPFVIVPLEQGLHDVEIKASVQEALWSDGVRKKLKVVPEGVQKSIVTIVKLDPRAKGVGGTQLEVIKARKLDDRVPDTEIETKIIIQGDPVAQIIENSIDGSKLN
Target sequence in this assay (Q91132 1264-1642 partner limits assumed): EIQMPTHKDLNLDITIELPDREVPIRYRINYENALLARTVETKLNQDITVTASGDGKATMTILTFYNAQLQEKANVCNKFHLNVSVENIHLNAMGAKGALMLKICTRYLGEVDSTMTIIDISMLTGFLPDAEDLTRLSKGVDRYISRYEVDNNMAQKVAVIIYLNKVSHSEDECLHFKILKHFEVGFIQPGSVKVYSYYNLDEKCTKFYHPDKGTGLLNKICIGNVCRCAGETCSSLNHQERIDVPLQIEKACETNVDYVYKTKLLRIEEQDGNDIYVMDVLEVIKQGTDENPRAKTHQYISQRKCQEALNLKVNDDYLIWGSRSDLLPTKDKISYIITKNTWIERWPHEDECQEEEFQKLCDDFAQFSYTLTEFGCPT
With `Cc1cc(C)c2[nH]ccc2c1Cc1nc2cc(C#N)ccc2[nH]1` [Example 58-C, 2-((5,7-Dimethyl-1H-indol-4-yl)methyl)-1H-benzo[d]imidazole-5-carbonitrile] the IC50 was 200 nM.
Compound `Cc1cc(CO)c(Cc2nc3cc(C#N)ccc3[nH]2)c2cc[nH]c12` [Example 59-C, 2-((5-(Hydroxymethyl)-7-methyl-1H-indol-4-yl)methyl)-1H-benzo[d]imidazole-5-carbonitrile] has an IC50 of 1760 nM.
With `Cc1cc(CN)c(Cc2nc3cc(C#N)ccc3[nH]2)c2cc[nH]c12` [Example 60-B, 2-((5-(Aminomethyl)-7-methyl-1H-indol-4-yl)methyl)-1H-benzo[d]imidazole-5-carbonitrile] the IC50 was 5780 nM.
`CC(=O)NCc1cc(C)c2[nH]ccc2c1Cc1nc2cc(C#N)ccc2[nH]1` [Example 61, N-((4-((5-cyano-1H-benzo[d]imidazol-2-yl)methyl)-7-methyl-1H-indol-5-yl)methyl)acetamide] gave an IC50 of 6620 nM.
`Cc1cc(C)c2[nH]ccc2c1Cc1nc2cc(C#N)cc(F)c2[nH]1` [Example 62-B, 2-((5,7-Dimethyl-1H-indol-4-yl)methyl)-7-fluoro-1H-benzo[d]imidazole-5-carbonitrile] was tested, and the IC50 was 7610 nM.
`CCc1cc(C)c2[nH]ccc2c1Cc1nc2cc(C#N)ccc2[nH]1` [Example 63-A] gave an IC50 of 160 nM.
`Cc1cc(Cl)c(Cc2nc3cc(C#N)ccc3[nH]2)c2cc[nH]c12` [Example 63-B] showed an IC50 of 260 nM.
`C=Cc1cc(C)c2[nH]ccc2c1Cc1nc2cc(C#N)ccc2[nH]1` [Example 63-C] gave an IC50 of 90 nM.
Work on `COCc1cc(C)c2[nH]ccc2c1Cc1nc2cc(C#N)ccc2[nH]1` [Example 63-D] yielded an IC50 of 1100 nM.
With `Cc1cc(C)c2[nH]ccc2c1Cc1nc2c(C)c(C#N)ccc2[nH]1` [Example 63-E] the IC50 was 320 nM.
With `Cc1cc(C)c2[nH]ccc2c1Cc1nc2cc(C#N)cc(C)c2[nH]1` [Example 63-F] the IC50 was over 100000 nM.
`Cc1cc(C)c2[nH]ccc2c1Cc1nc2cc(C#N)c(F)cc2[nH]1` [Example 63-G] was tested, and the IC50 was 5550 nM.
`Cc1cc(C)c2[nH]ccc2c1Cc1nc2cc(C#N)c(Cl)cc2[nH]1` [Example 63-I] gave an IC50 of 72600 nM.
With `COc1cc2[nH]c(Cc3c(C)cc(C)c4[nH]ccc34)nc2cc1C#N` [Example 63-J] the IC50 was 83200 nM.
Compound `Cc1cc(C2CC2)c(C(O)c2nc3cc(C#N)ccc3[nH]2)c2cc[nH]c12` (stereo not shown) [Example 67-B] has an IC50 of 260 nM.
`Cc1cc(Br)c(C(O)c2nc3cc(C#N)ccc3[nH]2)c2cc[nH]c12` (stereo not shown) [Example 67-F] gave an IC50 of 2000 nM.
`Cc1cc(C2CC2)c(C(O)c2nc3cc(C#N)c(F)cc3[nH]2)c2cc[nH]c12` (stereo not shown) [Example 67-H] gave an IC50 of 1930 nM.
`CCc1cc(C)c2[nH]ccc2c1C(=O)c1nc2cc(C#N)ccc2[nH]1` [Example 78, 2-(5-Ethyl-7-methyl-1H-indole-4-carbonyl)-1H-benzo[d]imidazole-5-carbonitrile] showed an IC50 of 640 nM.
In the case of `CCC(O)(c1nc2cc(C#N)ccc2[nH]1)c1c(C)cc(C)c2[nH]ccc12` (stereo not shown) [Example 79-G], the IC50 is reported as 190 nM.
`Cc1cc(C)c2[nH]ccc2c1C(O)(c1ccccc1)c1nc2cc(C#N)ccc2[nH]1` (stereo not shown) [Example 79-I] showed an IC50 of 660 nM.
For `Cc1cc(C)c2[nH]cc(Br)c2c1Cc1nc2cc(C#N)ccc2[nH]1` [Example 85, 2-((3-bromo-5,7-dimethyl-1H-indol-4-yl)methyl)-1H-benzo[d]imidazole-5-carbonitrile], the IC50 was 220 nM.
`Cc1cc(C)c2[nH]cc(Cl)c2c1Cc1nc2cc(C#N)ccc2[nH]1` [Example 86, 2-((3-Chloro-5,7-dimethyl-1H-indol-4-yl)methyl)-1H-benzo[d]imidazole-5-carbonitrile] gave an IC50 of 270 nM.
`CCc1cc(C)c2[nH]cc(C#N)c2c1Cc1nc2cc(C#N)ccc2[nH]1` [Example 90, 2-((3-Cyano-5-ethyl-7-methyl-1H-indol-4-yl)methyl)-1H-benzo[d]imidazole-5-carbonitrile] showed an IC50 of 110 nM.
`Cc1cc(Cl)c2[nH]ccc2c1Cc1nc2cc(C#N)ccc2[nH]1` [Example 110-K, 2-((7-Chloro-5-methyl-1H-indol-4-yl)methyl)-1H-benzo[d]imidazole-5-carbonitrile] showed an IC50 of 3330 nM.
Compound `CCc1cc(C)c(Cc2nc3cc(C#N)ccc3[nH]2)c2cc[nH]c12` [Example 111-E, 2-((7-Ethyl-5-methyl-1H-indol-4-yl)methyl)-1H-benzo[d]imidazole-5-carbonitrile] has an IC50 of 22900 nM.
Work on `Cc1cc(Br)c2[nH]ccc2c1Cc1nc2cc(C#N)ccc2[nH]1` [Example 112-E, 2-((7-Bromo-5-methyl-1H-indol-4-yl)methyl)-1H-benzo[d]imidazole-5-carbonitrile] yielded an IC50 of 4150 nM.
For `Cc1cc(CO)c2[nH]ccc2c1Cc1nc2cc(C#N)ccc2[nH]1` [Example 113-F, 2-((7-(Hydroxymethyl)-5-methyl-1H-indol-4-yl)methyl)-1H-benzo[d]imidazole-5-carbonitrile], the IC50 was 9600 nM.
In the case of `C=C(c1nc2cc(C#N)ccc2[nH]1)c1c(CC)cc(C)c2[nH]ccc12` [Example 114-C, 2-(1-(5-Ethyl-7-methyl-1H-indol-4-yl)vinyl)-1H-benzo[d]imidazole-5-carbonitrile], the IC50 is reported as 70 nM.
`C=C(c1nc2cc(C#N)ccc2[nH]1)c1c(OC)cc(C)c2[nH]ccc12` [Example 115, 2-(1-(5-Methoxy-7-methyl-1H-indol-4-yl)vinyl)-1H-benzo[d]imidazole-5-carbonitrile] showed an IC50 of 30 nM.
`CCc1cc(C)c2[nH]cc(-c3ccn[nH]3)c2c1Cc1nc2cc(C#N)ccc2[nH]1` [Example 116-F, 2-((5-Ethyl-7-methyl-3-(1H-pyrazol-5-yl)-1H-indol-4-yl)methyl)-1H-benzo[d]imidazole-5-carbonitrile] gave an IC50 of 190 nM.
In the case of `COc1cc(C)c2[nH]ccc2c1C(C)(C)c1nc2cc(C#N)ccc2[nH]1` [Example 122-C, 2-(2-(5-Methoxy-7-methyl-1H-indol-4-yl)propan-2-yl)-1H-benzo[d]imidazole-5-carbonitrile], the IC50 is reported as 5 nM.
In the case of `Cc1cc(C)c2c(c1Cc1nc3cc(C#N)ccc3[nH]1)CCN2` [Example 123, 2-((5,7-Dimethylindolin-4-yl)methyl)-1H-benzo[d]imidazole-5-carbonitrile], the IC50 is reported as 920 nM.

Same assay, conditions: assay of Biological Example 1 (Table 1), read-out: IC50
Work on “(+) or (−)-2-(1-methoxy-1-(7-methyl-5-(methylsulfonyl)-1H-indol-4-yl)ethyl)-1H-benzo[d]imidazole-5-carbonitrile [12-B b) (tr = 3.5 min)]” yielded an IC50 of 13800 nM.
“(−) or (+)-2-(1-methoxy-1-(7-methyl-5-(methylsulfonyl)-1H-indol-4-yl)ethyl)-1H-benzo[d]imidazole-5-carbonitrile [12-B b) (tr = 6.1 min)]” showed an IC50 of 600 nM.
